Measurements as given in US20070110734A9, “Methods and compositions using cellular asialodeterminants and glycoconjugates for targeting cells to tissues and organs” (Department of Veterans Affairs, Rehabilitation R&D Service, priority 2002, published 2007).

How the values were obtained:
HEPG2 (ASGPR+) = test: Adherence of NK/LAK activity to HEPG2 monolayers at 23° C; assay type: cell-based, human
Protocol: (§1) This experiment is the same as above, except that the adherence to monolayers was performed at 23° C. and not 4° C., for 2 hours. Two monolayers were used: HEPG2, an ASGPR+ cell line, and CAKI-2 (human renal cell carcinoma), an ASGPR− cell line. The effector cell populations that were used were: an untreated 3-day old LAK preparation (LAK) and the same population treated with Vibrio cholera neuraminidase (LAK/NS) (30 mU/1×10^7 cells/200 μl). The neuraminidase-treated population was the asialopositive lymphocyte control. All cell populations regardless of treatment were greater than 90% viable at the time of assay. Each type of effector population was incubated with media alone, 200 μg/ml ASF or F, as controls. All effectors were assayed on RAJI (LAK-sensitive target; NK-insensitive target) or K562 (NK/LAK-sensitive target); the E:T ratios and the graphic presentation are the same above.
(§2) Five-day LAK preparations (20 U/ml; 1 Dupont unit=44.5 BRMP units) grown in AIM-V (Gibco) were treated (according to the protocols in B. 1.2.3 & 1.2.4) with 3 OmU Vibric Cholera neuramindase, 0.48 mU 2,3-or 10 mu 2,6-silalyltransferase per 107 cells. Some of the effectors were incubated in media, 10% PBS in RPMJ 1640 at 23° C. for 2 hours. 2×107 effectors from the untreated LALK, neuramithdase-treated LAK, LAK treated with 2,3 or 2,6 were suspended in 15 ml media and placed onto either HEPG2 (ASGPR+) or CAKI-2 (ASGPR−) monolayers at 23° C. for 2 hours. The flasks were rocked every 15 minutes. The nonadherent cells from these monolayers were decanted and assayed against K562 and RAJI, in addition to the unadhered controls. The E:T ratios used were 40, 20, 10, and 5 to 1.

CAKI-2 (ASGPR−) = test: Adherence of NK/LAK activity to CAKI-2 monolayers at 23° C; assay type: cell-based, human
Protocol: as §1, §2

[1] = test system: RAJI (LAK-sensitive target; NK-insensitive target); test: Cytotoxic capacity of LAK effectors in 51Cr-release assay on RAJI; assay type: cell-based, human; details: for LAK activity (killing of RAJI) after enzyme treatment of effector cell surface: enzyme-treated LAK cells
Protocol: Control cells (no IL-2 treatment) or LAK cells (IL-2-treated human peripheral blood lymphocytes cultured 10U IL-2/ml for 3 days) were adhered to a monolayer of HEP G2 cells for 2 hours at 4° C. The monolayer was pretreated either with asialofetuin (ASF, 200 μg/ml) in media or with fetuin (F, control, 200 μg/ml)) in media. After the Control or LAK cells had been incubated on the monolayer, these cells were then decanted, washed, and tested for cytotoxic capacity in a ^51Cr-release assay against the NK-resistant target, Raji.
as §1, §2

[2] = test system: K562 (NK/LAK-sensitive target); test: Cytotoxic capacity of IL-2 activated NK effectors in 51Cr-release assay on K562; assay type: cell-based, human
Protocol: as §1, §2

[3] = test system: human CD34+ (hCD34+) peripheral blood stem cells; test: In vivo trafficking of 111In-labeled human CD34+ stem cells (HSC) after glycoprotein infusion, gamma camera imaging; design: species or system NOD-SCID mice; details: for organ localization of infused hematopoietic (CD34+) stem cells, in words: cells preceded by infusion of the protein, jugular vein, immunodeficient mice
Protocol: Intravenous cannulas were placed into the external jugular vein of NOD-SCID mice under anesthesia (Institutional Animal Care and Use Committee protocol #AM87046-07) to enable the efficient delivery of ^111In-labeled stem cells i.v. Tylenol elixir was administered by mouth after recovery from anesthesia. Briefly radiolabeled CD34+ cells were taken up in 100-250 ul of 5% human plasma albumin in saline and injected into the cannula and then flushed with 50 ul of the albumin-saline. The mice were imaged by nuclear medicine.
Mice: NOD-SCID, female mice (Nonobese diabetic/LtSz-scid/scid) were obtained from the Jackson Laboratory, Bar Harbor, Me. at 1-2 months of age. These animals were maintained in microisolator cages in a special isolator room. The air was HEPA filtered, and the animals were changed in a laminar flow hood within the facility. All food, bedding, and water was sterilized. […] See, e.g. Hogan, et al., Biology of Blood & Marrow Transplantation 3:236-246 (1997); Noort, et al., Bone Marrow Transplantation 22 Suppl 1:S58-60 (1998).
(§3) ^111Indium Oxine Labeling Procedure: ^111In-oxine labeling of adult human CD34+ or mesenchymal stem cells (hMSCs) was performed using a modification of the Amersham Healthcare Procedure for labeling autologous leukocytes.
(§4) Imaging procedures: Nuclear Medicine. NOD-SCID mice were anesthetized using rodent anesthesia cocktail. Once anesthetized, the mice were placed on a foam hemi-cylindrical mouse positioning device (MPD) and covered with a tube sock. The MPD allows better visual separation of the lungs and liver as compared to placing the mouse on a flat surface. The foam on which the mouse was placed, and the tube sock covering maintained a comfortable temperature permitting longer imaging without additional anesthesia. The MPD was placed on a narrow table between the dual heads of a Siemens E.Cam Gamma Camera and imaged statically or dynamically in 2-D or SPECT. ^57Co-Spot Marker is used to mark anatomic positions (nose, tail, cannula, etc.). The data was analyzed using a Siemens ICON system for regions of interest or percent of injected dose (e.g. liver, spleen, heart).
(§5) Gamma camera imaging using a Siemens E. Cam dual head gamma camera monitored the in vivo trafficking patterns of all human stem cells described in the following examples. Mice were placed on a Mouse Positioning Device (MPD) and placed between the detectors on the imaging platform.
5.75×10^6 111In-labeled human CD34+ (hCD34+) peripheral blood stem cells were administered intravenously (i.v.) via an external jugular vein cannula to 2 month old, NOD-SCID, female mice (Non-obese diabetic/LtSz-scid/scid) obtained from the Jackson Laboratory, Bar Harbor, Me. The radiolabeled CD34+ stem cells were administered after pretreatment of the mouse with 3.3 mg of asialoorosomucoid (ASO) i.v. The in vivo trafficking patterns were followed by gamma camera imaging using a Siemens E.Cam dual head gamma camera from immediately after injection up to 36 hr postinfusion. Human CD34+ were isolated from apheresis stem cell collection products derived from deceased cancer patients. They were purified to 95-99% purity using antibody conjugated to CD34 conjugated to magnetics beads (MACS) separation columns; Miltenyi Biotec, Auburn, Calif. and cryopreserved.
5.75×10^6 111In-labeled human CD34+ (hCD34+) peripheral blood stem cells were administered intravenously (i.v.) via an external jugular vein cannula to 2 month old, NOD-SCID, female mice (Non-obese diabetic/LtSz-scid/scid) obtained from the Jackson Laboratory, Bar Harbor, Me. The radiolabeled CD34+ stem cells were administered after pretreatment of the mouse with 5.5 mg of orosomucoid (O) i.v.
The preparation and procedures set forth in Example I were repeated. […]

[4] = test system: human mesenchymal stem cells (MSC); test: In vivo trafficking of 111In-labeled human mesenchymal stem cells (MSC) after glycoprotein infusion, gamma camera imaging; design: species or system NOD-SCID mice; details: for % Infused Cells in Liver/Spleen: 0.56×10^6 MSC preceded by 4.3 mg ASO followed by 5.5 mg orosomucoid i.v.
Protocol: Human mesenchymal stem cells (hMSCs; PT-2501) obtained through a FDA monitored paid bone marrow donor program were purchased from Poietics Technologies, BioWhittaker (Walkerville, Md.). The cells were thawed according to manufacturer recommendations, resuspended, and radiolabeled in Mesenchymal Stem Cell Basal Medium (MSCBM).
as §3, §4, §5
MSC were obtained from BioWhittaker, (Poietics Division, cryopreserved PT-2501 >750,000 cells per ampoule) and labeled with ^111In as in previous examples, except that the MSC were labeled, washed, and injected in Basal Stem Cell Medium (Poietics) containing 5% human serum albumin (HSA). 0.56×10^6 111In labeled, human mesenchymal stem cells (MSC) were administered via an implanted Da Vinci Microport Vascular System cannula in the external jugular vein of a two-month old, female NOD-SCID mouse in 0.21 ml of basal stem cell medium containing 5% human serum albumin (HSA). Immediately prior to administration of MSC, 11.0 mg of orosomucoid was administered i.v. in 0.2 ml.
0.56×10^6 “In-labeled, MSC were administered i.v. in 0.21 ml of basal stem cell medium containing 5% human serum albumin (HSA). Prior to administration of MSC, 0.1 ml containing 4.3 mg of ASO, followed by 0.1 ml containing 5.5 mg orosomucoid were administered i.v. The ASO, orosomucoid and MSC were administered via an implanted Da Vinci Microport Vascular system cannula in the external jugular vein of a two-month old, female NOD-SCID mouse.

Caki-2 Targets = test: 51Cr-release assay of LAK effectors against CAKI-2 with agent added; assay type: cell-based, human; details: for % 51Chromium Release from Caki-2 Targets: agent 250 μg per well, 5-day LAK, 4-hour incubation
Description: A working hypothesis is that LAK/NK cells bind to HEPG2 via at least two receptors or recognition structures: 1) the ASGPR, which binds an asialodeterminant on the LAK/NK population and 2) the “LAK” or “NK” recognition structure for a target epitope. The first should be inhibitable by ASF; the second should not be. Binding to CAKI-2 (ASGPR−) should not be inhibited by ASF and is due to a LAK or NK recognition structure binding to the target epitope. This can be further supported by data derived from experiments (see below) in which 250 μg/well of ASF or F were added to the ^51Cr-release assay of LAK effectors against the labeled target CAKI-2.
(% SPECIFIC RELEASE was determined from quadruplicates whose raw counts per minute differed by less than 10 percent; the assay was a standard 4-hour incubation.)

## Neuraminidase: Vibrio cholera neuraminidase used to treat LAK cells and generate cell surface asialodeterminants
HEPG2 (ASGPR+); 23° C for 2 hours
  adherence of LAK activity to HEPG2 (assayed on RAJI) after cell surface modification: did not
CAKI-2 (ASGPR−); 5-day LAK, 23° C for 2 hours
  adherence to CAKI-2 of IL-2 activated NK activity (assayed on K562) after cell surface modification: promotes adherence
[1]
  LAK activity (killing of RAJI) after enzyme treatment of effector cell surface: enhances
[1]; listed as neuraminidase
  LAK activity (killing of RAJI) after enzyme treatment of effector cell surface: significantly enhanced
[2]; enzyme-treated LAK cells
  IL-2 activated NK (killing K562 targets) after enzyme treatment of effector cell surface: does not enhance

## asialoorosomucoid [ASO]
[3]; 5.75×10^6 HSC after 3.3 mg ASO i.v., early postinfusion images
  migration of CD34+ cells to the liver and spleen, in words: did not migrate to the liver and spleen early
[3]
  organ localization of infused hematopoietic (CD34+) stem cells, in words: migrated immediately to the heart
[3]; listed as asialoorosomucoid
  organ localization of infused hematopoietic (CD34+) stem cells, in words: predominantly localize in the heart
[4]; 0 hr
  % Infused Cells in Liver/Spleen: 63 ± 5% at 0 hr
[4]; 1 hr
  % Infused Cells in Liver/Spleen: 57 ± 7% at 1 hr
[4]; cells preceded by infusion of the protein, jugular vein, immunodeficient mice
  organ localization of infused mesenchymal stem cells, in words: localize in the liver

## fetuin [reference compound]
HEPG2 (ASGPR+); 23° C, 200 μg/ml
  inhibition of adherence to HEPG2 of LAK activity (assayed on RAJI): could not be inhibited
HEPG2 (ASGPR+); 23° C, 200 μg/ml, assayed on RAJI
  inhibition of adherence of LAK activity of the neuraminidase-treated population to HEPG2: not
HEPG2 (ASGPR+); 23° C, with or without neuraminidase treatment, 200 μg/ml
  inhibition of adherence to HEPG2 of IL-2 activated NK (assayed on K562): not
CAKI-2 (ASGPR−); 23° C, 200 μg/ml
  inhibition of adherence to CAKI-2 of IL-2 activated NK or LAK activity: could not be inhibited
Caki-2 Targets; E:T 5:1
  % 51Chromium Release from Caki-2 Targets: 16%
Caki-2 Targets; E:T 10:1
  % 51Chromium Release from Caki-2 Targets: 27%
Caki-2 Targets; E:T 20:1
  % 51Chromium Release from Caki-2 Targets: 42%
Caki-2 Targets; E:T 40:1
  % 51Chromium Release from Caki-2 Targets: 58%
Caki-2 Targets; preincubation of targets and addition to the assay at 250 μg per well
  blocking of LAK killing of the tumor target CAKI-2, in words: does not block
[1]; 200 μg/ml for 2 h at 40C, no monolayer
  activity of LAK or Control preparations incubated with the protein alone versus untreated LAK: identical activity
[1]; 200 μg/ml, 23° C
  ability of effectors (LAK or LAK/NS) to kill RAJI after preincubation with the protein: does not affect
[2]; 200 μg/ml, 23° C
  ability of effectors (LAK or LAK/NS) to kill K562 after preincubation with the protein: does not affect
